From patent US4382765A, “Method of moisturizing the skin with carbamide acid esters” (Henkel Kommanditgesellschaft auf Aktien, priority 1977, dated 1983)

Legend:
pig epidermis [1] = experiment: Rehydration of impregnated pig epidermis; conditions: dried 24 h at 30% r.h., then incubated 24 h at 90% r.h.; 10% solution; improvement vs blank value
Text: (§1) The favorable action of the compounds, which are to be used in accordance with the invention, with respect to their capacity for the absorption and retention of water, was established by means of the test methods described hereinafter. A process for determining the equilibrium dampness which is indicative of the water retention capacity, and the determination of the water retention, rehydration and elasticity of impregnated pig epidermis are described in these tests.
(§2) Immediately after the pigs have been killed, the skin bristles are cut off by means of a shearing machine (shearing head 0.1 mm). The pigs are soaked for approximately 3 to 5 minutes in warm water of 60° C., the epidermis is subsequently peeled off and stored at -20° C. until it is used.
(§3) Stamped out pieces of epidermis (1×2 cm) were soaked for two hours in a 10% solution of the test substance. Excess moisture was then removed under standardized conditions by means of a small press, and the pieces were dried for 24 hours, hanging freely between 2 clamps in a 100 ml Erlenmeyer flask at 23° C., both at 30% relative humidity and 50% relative humidity (set by mixtures of sulfuric acid and water). The drying out of the impregnated test pieces to X% of the initial weight was compared with the corresponding value of the epidermis which had been soaked only in water (blank value). In Table I, the improvement in the water retention and in the rehydration as compared with the blank value is given in Δ% H2 O. The deviations in each double test amounted to a maximum of ±2 absolute units. The test was repeated if greater deviations occurred. The rehydration was determined analogously by drying the pig epidermis, which had been impregnated and from which the excess moisture had been removed, for 24 hours at 30% relative humidity, and by subsequent incubation for 24 hours at 90% relative humidity.

pig epidermis [2] = experiment: Water retention of impregnated pig epidermis; conditions: 24 hours, 23° C., soaked 2 h in 10% solution, improvement vs blank value (water only)
Text: as §1, §2, §3

[3] = Determination of the equilibrium dampness; assay type: physicochemical; conditions: 24 hours at 23° C.; relative humidity at which neither expulsion nor retention of water is effected; lower is better
Text: as §1
The substances (approximately 300 to 500 mg) to be tested were moistened with a defined quantity of water and were exposed for 24 hours at 23° C. to various relative atmospheric humidities (1%, 30%, 47%, 65%, 89% and 100% relative humidity). The quantity of water absorbed or desorbed was determined gravimetrically and plotted on a graph. The relative humidity at which neither expulsion nor retention of water is effected can be determined from the resultant curves. This value, which is designated as the "equilibrium dampness", is a measure of the water retention capacity of a substance. The lower the value, the more positive is the assessment of the product. Furthermore, the hygroscopicity of the substance can be read from the slope of the curve.

pig epidermis [4] = experiment: Elasticity measurements made on the impregnated pig epidermis; conditions: 24 hours, soaked 2 h in 10% aqueous solution; for mm stretch with between 5 and 30 pound loading at 75% r.h.: blank value 0; for mm stretch with between 5 and 30 pound loading at 90% r.h.: blank value 0.3-0.5
Description: A process for determining the equilibrium dampness which is indicative of the water retention capacity, and the determination of the water retention, rehydration and elasticity of impregnated pig epidermis are described in these tests.
as §2
Stamped out pieces of pig epidermis (1×6 cm) were soaked for two hours in a 10% aqueous solution of the substance which was to be tested, and excess moisture was removed from these pieces under standarized conditions. […] The amount of stretch in mm, measured in the Hooke range at a load between 5 to 30 pund, was determined as a measure of the elasticity.

Row | Equilibrium dampness [3] | SMILES | Rehydration, Δ% water absorption at 90% r.h. (pig epidermis [1]) | Water Retention, % H2O after drying out at 30% r.h. (pig epidermis [2]) | Water Retention, % H2O after drying out at 50% r.h. (pig epidermis [2]) | mm stretch with between 5 and 30 pound loading at 75% r.h. (pig epidermis [4]) | mm stretch with between 5 and 30 pound loading at 90% r.h. (pig epidermis [4])
1 | 76 % r.h. | O=C1NC(CO)(CO)CO1 [Product H, 4,4-bis-hydroxymethyl-oxazolidine-2-one] | 10 Δ% H2O | 12 Δ% H2O | 15 Δ% H2O | 0.5 mm | 2.6 mm
2 | 68 % r.h. | O=C1OCCN1CCO [Product I, N-(2-hydroxyethyl)-oxazolidine-2-one] | 16 Δ% H2O | 10 Δ% H2O | 16 Δ% H2O | 0.8 mm | 6.0 mm

Continued, compound first:

Row | SMILES | Equilibrium dampness [3] | Rehydration, Δ% water absorption at 90% r.h. (pig epidermis [1]) | Water Retention, % H2O after drying out at 30% r.h. (pig epidermis [2]) | Water Retention, % H2O after drying out at 50% r.h. (pig epidermis [2]) | mm stretch with between 5 and 30 pound loading at 75% r.h. (pig epidermis [4]) | mm stretch with between 5 and 30 pound loading at 90% r.h. (pig epidermis [4])
3 | O=C(NCCO)OCCO [Product A, N-(2-hydroxyethyl)-carbamide acid-2-hydroxyethyl ester] | 58 % r.h. | 62 Δ% H2O | 25 Δ% H2O | 26 Δ% H2O | 1.1 mm | 5.5 mm
4 | CC(O)CNC(=O)OCCO (stereo not drawn) [Product B, N-(2-hydroxypropyl)-carbamide acid-2-hydroxyethyl ester] | 58 % r.h. | 70 Δ% H2O | 23 Δ% H2O | 22 Δ% H2O | 1.0 mm | 6.0 mm
5 | CC1(C)COC(=O)N1 [Product F, 4,4-Dimethyl-oxazolidine-2-one] | 83 % r.h. | 5 Δ% H2O | 5 Δ% H2O | 7 Δ% H2O | 0.4 mm | 7.4 mm
